Converted amounts (≈) assume the structure as drawn. “Also recorded” adds a separate entry of the source.
Experiments:
MCF10A cells = test: EdU incorporation / cell cycle progression screen in MCF10A cells; type: cell-based, human; conditions: for Outcome of EdU incorporation screen: 0.025 to 100 μM; for IC50: Homo sapiens, MCF-10A, 18 h treatment, rough values from Figure 1 graphs, read-out: IC50 (concentration required for 50% decrease of EdU-positive cells)
Procedure: For cell cycle progression using EdU, MCF10A cells were seeded in 384-well plates at a density of 800 cells per well. […] EdU from kit C10337 (ThermoFischer Scientific, Waltham, MA, United States) was then added to the cells at 10 μM and incubated for 2.5 h. Cells were fixed in 4% paraformaldehyde for 30 min at room temperature. Click-iT reaction was performed for 1 h at room temperature, protected from light, with 5 µM Alexa Fluor 488 azide in (100 mM Tris, 1 mM CuSO4, 50 mM Ascorbic Acid, pH 8.5). Nuclei were counterstained with Hoechst 33,342 (Thermo Fisher Scientific). Imaging and analysis were performed using the ImageXpress Micro XL High-Content Screening System (Molecular Devices LLC, San Jose, CA, United States). IC50 values were determined by sigmoidal curve fitting using GraphPad Prism six software.

B16-F1 cells [1] = test: Lamellipodium formation in B16-F1 cells (cortactin immunofluorescence); type: cell-based, mouse; conditions: for Inhibition of lamellipodium formation: 100 μM, 1 h; for Dose-dependent inhibition of lamellipodium formation, potency relative to CK-666: dose-dependent assay (Figure 2D)
Procedure: Lyophilized compounds were resuspended with fresh DMSO from sealed vials (cell biology grade). Compounds, stored at +4°C, were used within a week. B16-F1 cells were seeded onto glass coverslips coated for 1 h with 25 μg/ml laminin (Sigma) in (50 mM Tris, 150 mM NaCl, pH 7.4). […] Cell were then processed for immunofluorescence.
Cells were fixed in 3.2% PFA on PBS, then quenched with 50 mM NH4Cl and permeabilised with 0.5% Triton X-100. After blocking in 2% BSA cells were incubated with antibodies (1–5 μg/ml for the primary, 5 μg/ml for the secondary). Total actin in cells was visualized by phalloidin staining. Nuclei were stained with 0.3 μg/ml DAPI (Roche). Coverslips were mounted in Dako Fluorescence Mounting Medium (Agilent). For immunofluorescence, ARPC2 rabbit polyclonal antibody (Millipore, 07–227), Cortactin mouse monoclonal 4F11 (Millipore, 05–180) were used. Secondary goat anti-mouse and anti-rabbit antibodies conjugated with Alexa Fluor 555 and 647 respectively were from Life Technologies. Phalloidin conjugated with Alexa Fluor 488 was from Tebu-bio.
(§1) Image analysis was performed in ImageJ or FIJI software. To measure wound healing, boundaries of the wound were drawn manually at different time points, then wound size was measured.

Arp2/3 = target: T1, Arp2/3 (Bos taurus, UniProt A7MB62+P61157); test: Pyrene-actin polymerization assay; type: biochemical, bovine; conditions: for IC50: 1.5 μM actin (10% pyrenyl-labeled), read-out: IC50 of Arp2/3-mediated actin polymerization; for IC50 / Arp2/3 inhibition reached at saturation: 20 nM Arp2/3, 250 nM N-WASP VCA; for Arp2/3 inhibition reached at saturation: 1.5 μM actin
T1 construct: purchased Cytoskeleton, Inc
Procedure: Actin was purified from rabbit muscle and was pyrenyl-labeled ([Carlier et al., 1984]; [Malm, 1984]). Arp2/3 was from Cytoskeleton, Inc. VCA domain of N-WASP was purified as previously described ([Clainche et al., 2003]). Pyrene-actin polymerization assays were performed as previously ([Romero et al., 2007]). Briefly, CaATP-actin was converted into MgATP-actin in (5 mM Tris, 0.2 mM ATP, 0.1 mM CaCl2, 1 mM DTT, 1 mM MgCl2, and 0.2 mM EGTA, pH 7.6) and kept on ice for no more than 1 h. Actin polymerization was monitored in (5 mM Tris, 50 mM KCl, 0.2 mM ATP, 0.1 mM CaCl2, 1 mM DTT, 1 mM MgCl2, 0.2 mM EGTA, pH 7.6) in the presence of 2% DMSO alone or 2% DMSO containing the appropriated compound concentration. The increase in fluorescence of 10% pyrenyl-labeled actin was monitored using a Safas spectrofluorimeter (λexc = 366 nm, λem = 407 nm). The maximum rate of actin polymerization was derived from the maximum slope of the polymerization curve multiplied by [total polymer]/(RFUmax—RFUmin) [total polymer] is the total actin minus the critical concentration (0.1 μM) and RFU, Relative Fluorescence Unit. The maximum elongation rates of actin polymerization were plotted as a function of the concentration of the different compounds. For CK-666, 59, 69 and 71, curves were fitted with the following equation to determine the IC50. Mrate= Rmax−Rmax−Rmin/1+IC50/(Compound Conc.) where Mrate is the measured maximum rate of actin polymerization at a given compound concentration, Rmax is the maximum rate of actin polymerization with no compound, and Rmin is the maximum rate of actin polymerization at saturating concentration of compound.
The curve of compound 15 was fitted with a linear decay. The IC50 was determined at half inhibition of actin polymerization.

B16-F1 cells [2] = test: Wound healing (cell migration) of B16-F1 cells; type: cell-based, mouse; conditions: for Inhibition of cell migration (wound healing) compared with 100 µM CK-666: compound at 25 µM
Procedure: For the wound healing, B16-F1 cells were seeded onto 8-well Ibidi dishes coated with laminin, and grown to confluence. Wounds in the cell monolayer were obtained by scratching the monolayer with a pipet tip. Detached cells were immediately washed away and new medium containing the various compounds was added. Cells were then used for videomicroscopy.
Videomicroscopy was performed on an inverted Axio Observer microscope (Zeiss) equipped with a Pecon Zeiss incubator XL multi S1 RED LS (Heating Unit XL S, Temp module, CO2 module, Heating Insert PS and CO2 cover), Definite focus module and a Hamamatsu camera C10600 Orca-R2. Phase contrast images were taken every 30 min for 24 h using the 10X/0.25 Plan-Apochromat air objective. For immunofluorescence, slides were observed and imaged with the 63X/1.4 Plan-Apochromat oil objective. Fluorophores were excited with the HBO 100 W lamp (Osram) installed in the HXP 120 Metal halide fluorescence light source (Zeiss).
as §1

sea urchin embryos = test: Sea urchin embryo development assay; type: in vivo, Paracentrotus lividus; conditions: for Effect on archenteron elongation / Effect on primary mesenchyme cell (PMC) migration: observed up to four-arm mid-pluteus stage
Procedure: The procedure was described in detail in [Semenova et al., 2018]. Briefly, adult sea urchins, Paracentrotus lividus L (Echinidae), were collected from the Mediterranean Sea on the Cyprus coast and kept in an aerated seawater tank. Gametes were obtained by intracoelomic injection of 0.5 M KCl. Eggs were washed with filtered seawater and fertilized by adding drops of diluted sperm. Embryos were cultured at room temperature under gentle agitation with a motor-driven plastic paddle (60 rpm) in filtered seawater. […] For treatment with test compounds, 5 ml aliquots of embryo suspension were transferred to six-well plates and incubated at a concentration of 1,000–2,000 embryos/ml. For images, sedimented embryos were concentrated in the center of the well by gentle rotation of the culture plate, and 200 μl aliquots containing several hundred embryos were used to take pictures (up to 20 images from different fields). Embryos selected for Figure 4 were representative of the population.
(§2) Stock solutions of compounds were prepared in DMSO at 50–250 mM concentration followed by a 10-fold dilution with 96% EtOH. This procedure enhanced the solubility of the test compounds in the salty seawater. Maximal tolerated concentrations of DMSO and EtOH in the assay were determined to be 0.05 and 1%, respectively. Higher concentrations of either DMSO (>0.1%) or EtOH (>1%) caused nonspecific alterations and retardation of the sea urchin embryo development independent of the treatment stage. Maximum solubility of compounds 15, 59, 69, and 71 was about 5–20 mM in seawater, since visible crystals formed at higher concentrations.
The effects were assessed after exposure of fertilized eggs (8–15 min post fertilization, 45–55 min before the first mitotic cycle completion) to 2-fold decreasing concentrations of the compound. Embryonic development was monitored until the beginning of active feeding at four-arm pluteus stage (33–36 h postfertilization). Developmental abnormalities were estimated quantitatively as minimal effective concentration (MEC), resulting in inhibition of archenteron elongation or skeletal spicule formation.

[3] = Maximum solubility in seawater; type: physicochemical; conditions: saline or isotonic, kinetic from dmso stock, visible crystals formed at higher concentrations
Procedure: as §2

[4] = treated at zygote stage, monitored to four-arm pluteus

Structure (SMILES)	Outcome of EdU incorporation screen (MCF10A cells)	IC50 (MCF10A cells)	Inhibition of lamellipodium formation (B16-F1 cells [1])	IC50 (Arp2/3)	Arp2/3 inhibition reached at saturation (Arp2/3)	Inhibition of cell migration (wound healing) compared with 100 µM CK-666 (B16-F1 cells [2])	solubility [3]	other results
Cc1[nH]c2ccccc2c1CCNC(=O)c1cc([N+](=O)[O-])ccc1Cl [Compound 12, 2-Chloro-N-[2-(2-methyl-1H-indol-3-yl)ethyl]-5-nitrobenzamide]	scored positive	13.8 µM	significantly less active than CK-666	–	–	–	–	–
Cc1ccc2[nH]c(C)c(CCNC(=O)c3ccc(C(=O)c4ccccc4)o3)c2c1 [Compound 30, 5-Benzoyl-N-[2-(2,5-dimethyl-1H-indol-3-yl)ethyl]-2-furamide]	scored positive	0.696 µM	significantly less active than CK-666	–	–	–	–	–
COCC(=O)NCCc1c[nH]c2ccccc12 [CK-689, N-(2-(1H-Indol-3-yl)ethyl)-2-methoxy-acetamide, reference compound]	–	–	formed a single wide lamellipodium encompassing most cell perimeter	–	–	–	–	Activity against Arp2/3 in vitro (Arp2/3; pyrene-actin assay): inactive; Inhibition of wound healing (B16-F1 cells [2]; 100 µM): but not CK-689, inhibits wound healing
Cc1[nH]c2ccc(OCc3ccccc3)cc2c1CCNC(=O)c1cccc(Br)c1 [Compound 59, N-{2-[5-(Benzyloxy)-2-methyl-1H-indol-3-yl]ethyl}-3-bromobenzamide]	scored positive	11.5 µM	–	180 µM	saturation was not reached	more active than CK-666	5 to 20 µM (≈ 2.32 to 9.27 µg/mL)	Effect on archenteron elongation (sea urchin embryos): inhibited elongation of the archenteron at approximately half-size; Effect on primary mesenchyme cell (PMC) migration (sea urchin embryos): altered PMC migration resulting in the lack of ventrolateral clusters and spicules; Minimum effective concentration, Inhibition of Archenteron elongation (sea urchin embryos; [4]): 10 µM; Minimum effective concentration, Inhibition of Spicule formation (sea urchin embryos; [4]): 5 µM; Dose-dependent inhibition of lamellipodium formation, potency relative to CK-666 (B16-F1 cells [1]): slightly less active than CK-666; Cell rounding and detachment in wound healing assay (B16-F1 cells [2]; 25 µM): not observed; Cell rounding and detachment in wound healing assay (B16-F1 cells [2]; 100 µM): to a lesser extent 59 induced cell rounding followed by detachment from the substrate
Cc1[nH]c2ccccc2c1CCNC(=O)c1ccccc1C(=O)c1ccccc1 [Compound 15, 2-Benzoyl-N-[2-(2-methyl-1H-indol-3-yl)ethyl]benzamide]	scored positive	20 µM	–	104 µM	100%	inhibited cell migration as efficiently as 100 µM CK-666	5 to 20 µM (≈ 1.91 to 7.65 µg/mL)	Developmental abnormality (sea urchin embryos; 5 μM): suppressed plutei growth; Developmental abnormality (sea urchin embryos; 20 μM): Non-specific defects; also recorded: defective gastrulation was observed; Minimum effective concentration, Systemic Toxicity (sea urchin embryos; [4]): 5 µM; Dose-dependent inhibition of lamellipodium formation, potency relative to CK-666 (B16-F1 cells [1]): significantly more potent than CK-666; Cell rounding and detachment in wound healing assay (B16-F1 cells [2]; 25 µM): not observed; Cell rounding and detachment in wound healing assay (B16-F1 cells [2]; 100 µM): induced cell rounding followed by detachment from the substrate
CCc1cc2cc(C(=O)NCCc3c(C)[nH]c4ccc(C)cc34)sc2s1 [Compound 24, N-[2-(2,5-Dimethyl-1H-indol-3-yl)ethyl]-5-ethylthieno[2,3-b]thiophene-2-carboxamide]	scored positive	4.01 µM	significantly less active than CK-666	–	–	–	–	–
Cc1[nH]c2c(Cl)cccc2c1CCNC(=O)c1cc(S(=O)(=O)N(C)C)c(Cl)cc1Cl [Compound 69, 2,4-Dichloro-N-[2-(7-chloro-2-methyl-1H-indol-3-yl)ethyl]-5-[(dimethylamino)sulfonyl]benzamide]	scored positive	50.5 µM	–	61 µM	67%	inhibited cell migration as efficiently as 100 µM CK-666	5 to 20 µM (≈ 2.44 to 9.78 µg/mL)	Developmental phenotype (sea urchin embryos; 12 μM, 22°C): Defective gastrulation; Effect on archenteron elongation (sea urchin embryos): inhibited elongation of the archenteron at approximately half-size; Effect on primary mesenchyme cell (PMC) migration (sea urchin embryos): altered PMC migration resulting in the lack of ventrolateral clusters and spicules; Minimum effective concentration, Inhibition of Archenteron elongation (sea urchin embryos; [4]): 5 µM; Minimum effective concentration, Inhibition of Spicule formation (sea urchin embryos; [4]): 5 µM

Source: publication PMC9189929, “Synthesis, Screening and Characterization of Novel Potent Arp2/3 Inhibitory Compounds Analogous to CK-666” (Frontiers in Pharmacology, 2022)
